From PubChem BioAssay (NCI)
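Compound exposure: 48 hours, 5 concentrations, 96-well plates. The concentration for 50% growth inhibition is given as GI50. TGI marks complete inhibition of growth.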

Legend:
Assay in all cases: NCI tumour cell line growth inhibition, 48 h
[1] = test system: 786-0 renal
[2] = test system: A498 renal
[3] = test system: A549 NSCLC
[4] = test system: ACHN renal
[5] = test system: BT-549 breast
[6] = test system: CAKI-1 renal
[7] = test system: CCRF-CEM leukemia
[8] = test system: COLO 205 colon
[9] = test system: DU-145 prostate
[10] = test system: EKVX NSCLC
[11] = test system: HCC-2998 colon
[12] = test system: HCT-116 colon
[13] = test system: HCT-15 colon
[14] = test system: HL-60(TB) leukemia
[15] = test system: HOP-62 NSCLC
[16] = test system: HOP-92 NSCLC
[17] = test system: HS 578T breast
[18] = test system: HT29 colon
[19] = test system: IGROV1 ovarian
[20] = test system: KM12 colon
[21] = test system: LOX IMVI melanoma
[22] = test system: M14 melanoma
[23] = test system: MALME-3M melanoma
[24] = test system: MCF7 breast
[25] = test system: MDA-MB-231 breast
[26] = test system: MDA-MB-435
[27] = test system: MOLT-4 leukemia
[28] = test system: NCI-H226 lung
[29] = test system: NCI-H23 lung
[30] = test system: NCI-H460 lung
[31] = test system: NCI-H522 lung
[32] = test system: NCI/ADR-RES ovarian
[33] = test system: OVCAR-3 ovarian
[34] = test system: OVCAR-4 ovarian
[35] = test system: OVCAR-5 ovarian
[36] = test system: OVCAR-8 ovarian
[37] = test system: PC-3 prostate
[38] = test system: RPMI-8226 leukemia
[39] = test system: RXF 393 renal
[40] = test system: SF-268 CNS
[41] = test system: SF-539 CNS
[42] = test system: SK-MEL-2 melanoma
[43] = test system: SK-MEL-28 melanoma
[44] = test system: SK-MEL-5 melanoma
[45] = test system: SK-OV-3 ovarian
[46] = test system: SN12C renal
[47] = test system: SNB-19 CNS
[48] = test system: SNB-75 CNS
[49] = test system: SR leukemia
[50] = test system: SW-620 colon
[51] = test system: T-47D breast
[52] = test system: TK-10 renal
[53] = test system: U251 CNS
[54] = test system: UACC-257 melanoma
[55] = test system: UACC-62 melanoma
[56] = test system: UO-31 renal

## COC(=O)C1=C(C)NC(C)=C(C(=O)OCC(C)C)C1c1ccccc1[N+](=O)[O-] (configuration not stated)
[1]
  GI50: 3.55 µM
  TGI: 12.6 µM
[2]
  GI50: 10.7 µM
  TGI: 23.7 µM
[3]
  GI50: 4.52 µM
  TGI: 18.9 µM
[4]
  GI50: 2.22 µM
  TGI: 10.6 µM
[5]
  GI50: 5.06 µM
  TGI: 17.1 µM
[6]
  GI50: 2.29 µM
  TGI: 11 µM
[7]
  GI50: 2.45 µM
  TGI: 11.3 µM
[8]
  GI50: 13.3 µM
  TGI: 26 µM
[9]
  GI50: 5.48 µM
  TGI: 34.7 µM
[10]
  GI50: 8.06 µM
  TGI: 32.7 µM
[11]
  GI50: 6.18 µM
  TGI: 22.4 µM
[12]
  GI50: 3.02 µM
  TGI: 12.1 µM
[13]
  GI50: 3.88 µM
  TGI: 15.9 µM
[14]
  GI50: 2.73 µM
  TGI: 9.46 µM
[15]
  GI50: 5.24 µM
  TGI: 18.4 µM
[16]
  GI50: 4.57 µM
  TGI: 19.8 µM
[17]
  GI50: 13.9 µM
  TGI: > 100 µM
[18]
  GI50: 9.2 µM
  TGI: 22.9 µM
[19]
  GI50: 5.55 µM
  TGI: 25.9 µM
[20]
  GI50: 2.94 µM
  TGI: > 100 µM
[21]
  GI50: 3.07 µM
  TGI: 16.6 µM
[22]
  GI50: 2.9 µM
  TGI: 8.21 µM
[23]
  GI50: 4.47 µM
  TGI: 17.2 µM
[24]
  GI50: 3.58 µM
  TGI: 16.1 µM
[25]
  GI50: 4.04 µM
  TGI: 17.1 µM
[26]
  GI50: 4.25 µM
  TGI: 17.6 µM
[27]
  GI50: 3.31 µM
  TGI: 18.9 µM
[28]
  GI50: 3.75 µM
  TGI: 15.1 µM
[29]
  GI50: 3.47 µM
  TGI: 16.5 µM
[30]
  GI50: 3.6 µM
  TGI: 15.2 µM
[31]
  GI50: 2.4 µM
  TGI: 10.7 µM
[32]
  GI50: 2.07 µM
  TGI: 16.8 µM
[33]
  GI50: 6.35 µM
  TGI: 19.6 µM
[34]
  GI50: 2.32 µM
  TGI: 11.8 µM
[35]
  GI50: 7.52 µM
  TGI: 22.5 µM
[36]
  GI50: 4.33 µM
  TGI: 21 µM
[37]
  GI50: 3.54 µM
  TGI: 16.9 µM
[38]
  GI50: 3.25 µM
  TGI: 25.8 µM
[39]
  GI50: 2.11 µM
  TGI: 8.31 µM
[40]
  GI50: 7.8 µM
  TGI: 22.7 µM
[41]
  GI50: 5.3 µM
  TGI: 16.8 µM
[42]
  GI50: 4 µM
  TGI: 13.6 µM
[43]
  GI50: 4.18 µM
  TGI: 15.2 µM
[44]
  GI50: 2.72 µM
  TGI: 10.1 µM
[45]
  GI50: 4.65 µM
  TGI: 17.4 µM
[46]
  GI50: 4.15 µM
  TGI: 19.8 µM
[47]
  GI50: 8.2 µM
  TGI: 64.3 µM
[48]
  GI50: 2.44 µM
  TGI: 15.2 µM
[49]
  GI50: 2.53 µM
  TGI: 11.3 µM
[50]
  GI50: 3.11 µM
  TGI: 11.4 µM
[51]
  GI50: 3.9 µM
  TGI: 16.4 µM
[52]
  GI50: 4.11 µM
  TGI: 13 µM
[53]
  GI50: 4.27 µM
  TGI: 17.6 µM
[54]
  GI50: 3.71 µM
  TGI: 12.5 µM
[55]
  GI50: 2.28 µM
  TGI: 11.2 µM
[56]
  GI50: 1.73 µM
  TGI: 7.07 µM
